This is an account of results in patent US8716303B2, “N-(hetero)aryl-pyrrolidine derivatives of pyrazol-4-yl-pyrrolo[2,3-d]pyrimidines and pyrrol-3-yl-pyrrolo[2,3-d]pyrimidines as janus kinase inhibitors” (Incyte Corporation, priority 2009, dated 2014).

Where a name gives a salt, the structure may show the parent alone. A value given as a limit tells only on which side of the number the result lay.

Test [1] has as its target T1, Jak2 (a.a. 828-1132) (Homo sapiens, UniProt O60674).
T1 construct: Jak2 (a.a. 828-1132); His tag (N); made in house; host or cells: insect cells (baculovirus)
Kind of test: In vitro JAK kinase assay (HTRF, phosphorylation of a biotinylated peptide), JAK2, reported as JAK2/JAK1 ratio. Type of test: biochemical.

The target of test [2] is T2, human JAK1 (a.a. 837-1142) (Homo sapiens, UniProt P23458).
T2 construct: human JAK1 (a.a. 837-1142); His tag (N); made in house; host or cells: insect cells (baculovirus)
T2 sequence (P23458 849-1154): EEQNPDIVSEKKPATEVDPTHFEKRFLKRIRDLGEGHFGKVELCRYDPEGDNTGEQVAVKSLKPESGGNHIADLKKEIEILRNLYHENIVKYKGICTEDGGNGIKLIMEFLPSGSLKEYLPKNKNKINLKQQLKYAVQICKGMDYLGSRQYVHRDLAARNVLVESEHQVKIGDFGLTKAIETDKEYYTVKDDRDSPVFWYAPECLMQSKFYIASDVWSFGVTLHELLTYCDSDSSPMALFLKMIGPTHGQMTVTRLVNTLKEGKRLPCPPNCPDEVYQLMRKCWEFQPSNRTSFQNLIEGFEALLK
Kind of test: In vitro JAK kinase assay (HTRF, phosphorylation of a biotinylated peptide), JAK1. Format: biochemical. In a few lines: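 IC50s come from HTRF detection (Eu-Py20, SA-APC, 40 min binding) after 1 h RT reactions with 500 nM biotinylated peptide in Tris pH 7.8 buffer. ATP either 1 mM or Km-level, 90 μM for JAK1 and 30 μM for JAK2; enzymes are baculovirus-expressed His-tagged catalytic domains (JAK1 837-1142, JAK2 828-1132).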

[3] abbreviates: Assay Conditions Km (ATP 90 μM for Jak1, 30 μM for Jak2).
Setting [4] is: Assay Conditions Km (ATP 90 μM for Jak1).

T1 sequence (O60674 828-1132): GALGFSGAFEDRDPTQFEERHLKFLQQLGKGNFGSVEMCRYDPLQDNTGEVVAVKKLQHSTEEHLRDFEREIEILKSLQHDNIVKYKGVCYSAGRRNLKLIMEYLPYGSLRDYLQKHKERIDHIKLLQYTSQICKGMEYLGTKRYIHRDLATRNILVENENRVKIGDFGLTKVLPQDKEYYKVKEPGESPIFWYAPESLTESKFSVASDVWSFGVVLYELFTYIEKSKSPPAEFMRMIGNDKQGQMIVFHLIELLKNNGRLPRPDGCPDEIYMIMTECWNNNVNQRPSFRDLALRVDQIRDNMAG

With `N#CCC(C1CCN(c2ncc3c(c2C#N)S(=O)(=O)CC3)C1)n1cc(-c2ncnc3[nH]ccc23)cn1` (single isomer, unassigned) [Example 172, 6-(3-{2-cyano-1-[4-(7H-pyrrolo[2,3-d]pyrimidin-4-yl)-1H-pyrazol-1-yl]ethyl}pyrrolidin-1-yl)-2,3-dihydrothieno[3,2-c]pyridine-7-carbonitrile 1,1-dioxide], in test [1] (Assay Conditions 1 mM ATP), the “JAK2/JAK1 IC50 ratio” value is on record as 20.0. The IC50 in test [2] (Assay Conditions 1 mM ATP) is under 0.05 µM.

`N#CCC(C1CCN(c2ncc3c(c2C#N)SCC3)C1)n1cc(-c2ncnc3[nH]ccc23)cn1` (single isomer, unassigned) [Example 173, 6-(3-{2-cyano-1-[4-(7H-pyrrolo[2,3-d]pyrimidin-4-yl)-1H-pyrazol-1-yl]ethyl}pyrrolidin-1-yl)-2,3-dihydrothieno[3,2-c]pyridine-7-carbonitrile]: the “JAK2/JAK1 IC50 ratio” value in test [1] (Assay Conditions 1 mM ATP) is given as over 27.3. In addition, the IC50 in test [2] (Assay Conditions 1 mM ATP) was under 0.05 µM.

`N#CCC(C1CCN(c2ncc3c(c2C#N)SCC3)C1)n1ccc(-c2ncnc3[nH]ccc23)c1` (single isomer, unassigned) [Example 174-1, 6-(3-{2-cyano-1-[3-(7H-pyrrolo[2,3-d]pyrimidin-4-yl)-1H-pyrrol-1-yl]ethyl}pyrrolidin-1-yl)-2,3-dihydrothieno[3,2-c]pyridine-7-carbonitrile]: the “JAK2/JAK1 IC50 ratio” value in test [1] (Assay Conditions 1 mM ATP) is recorded as 28.5. The same molecule had an IC50 in test [2] (Assay Conditions 1 mM ATP) of under 0.05 µM.

As to `N#CCC(C1CCN(c2ncc3c(c2C#N)SCC3)C1)n1ccc(-c2ncnc3[nH]ccc23)c1` (single isomer, unassigned) [Example 174-2, 6-(3-{2-cyano-1-[3-(7H-pyrrolo[2,3-d]pyrimidin-4-yl)-1H-pyrrol-1-yl]ethyl}pyrrolidin-1-yl)-2,3-dihydrothieno[3,2-c]pyridine-7-carbonitrile], the “JAK2/JAK1 IC50 ratio” value in test [1] (Assay Conditions 1 mM ATP) came to 11.1. In test [2] (Assay Conditions 1 mM ATP), the IC50 is under 0.05 µM.

On to `N#CCC(C1CCN(c2ncc3ccsc3c2C#N)C1)n1cc(-c2ncnc3[nH]ccc23)cn1` (single isomer, unassigned) [Example 175, 6-(3-{2-cyano-1-[4-(7H-pyrrolo[2,3-d]pyrimidin-4-yl)-1H-pyrazol-1-yl]ethyl}pyrrolidin-1-yl)thieno[3,2-c]pyridine-7-carbonitrile], for which the “JAK2/JAK1 IC50 ratio” value in test [1] (Assay Conditions 1 mM ATP) stood at 15.4. This molecule registered an IC50 in test [2] (Assay Conditions 1 mM ATP) of under 0.05 µM.

`N#CCC(C1CCN(c2ncc3cc[nH]c3c2C#N)C1)n1cc(-c2ncnc3[nH]ccc23)cn1` (single isomer, unassigned) [Example 177, 6-(3-{2-cyano-1-[4-(7H-pyrrolo[2,3-d]pyrimidin-4-yl)-1H-pyrazol-1-yl]ethyl}pyrrolidin-1-yl)-1H-pyrrolo[3,2-c]pyridine-7-carbonitrile]: in test [1] (Assay Conditions 1 mM ATP), the “JAK2/JAK1 IC50 ratio” value is reported as over 5.4. For the same molecule, the IC50 in test [2] (Assay Conditions 1 mM ATP) was under 0.05 µM.

In the case of `N#Cc1c(N2CC[C@H](C(CF)n3cc(-c4ncnc5[nH]ccc45)cn3)C2)ncc2c1S(=O)(=O)CC2` (single isomer, unassigned) [Example 178], in test [1] (Assay Conditions 1 mM ATP), the “JAK2/JAK1 IC50 ratio” value was determined as 31.8. In test [2] (Assay Conditions 1 mM ATP), the IC50 was under 0.05 µM.

`FCC([C@H]1CCN(c2nc3cccnc3o2)C1)n1cc(-c2ncnc3[nH]ccc23)cn1` (stereo partly drawn) [70 (3S- enantiomer), 2-((3S)-3-{2-fluoro-1-[4-(7H-pyrrolo[2,3-d]pyrimidin-4-yl)-1H-pyrazol-1-yl]ethyl}pyrrolidin-1-yl)[1,3]oxazolo[5,4-b]pyridine phosphoric acid salt]: the “JAK2/JAK1 IC50 ratio” value in test [1] (Assay Conditions 1 mM ATP) is on record as 15. This molecule also showed an IC50 in test [2] (Assay Conditions 1 mM ATP) of under 0.05 µM.

As for `FCC([C@@H]1CCN(c2nc3cccnc3o2)C1)n1cc(-c2ncnc3[nH]ccc23)cn1` (stereo partly drawn) [71 (3R- enantiomer), 2-((3R)-3-{2-fluoro-1-[4-(7H-pyrrolo[2,3-d]pyrimidin-4-yl)-1H-pyrazol-1-yl]ethyl}pyrrolidin-1-yl) [1,3]oxazolo[5,4-b]pyridine phosphoric acid salt], the “JAK2/JAK1 IC50 ratio” value in test [1] (Assay Conditions 1 mM ATP) amounted to 5.9. This molecule also displayed an IC50 in test [2] (Assay Conditions 1 mM ATP) of under 0.05 µM.

Turning to `N#CCC(C1CCN(c2nc(Br)cs2)C1)n1cc(-c2ncnc3[nH]ccc23)cn1` (stereo not drawn) [Example 5, 3-[1-(4-bromo-1,3-thiazol-2-yl)pyrrolidin-3-yl]-3-[4-(7H-pyrrolo[2,3-d]pyrimidin-4-yl)-1H-pyrazol-1-yl]propanenitrile trifluoroacetate], the “JAK2/JAK1 IC50 ratio” value in test [1] (setting [3]) was found to be 2.2. The IC50 in test [2] (setting [4]) is under 0.05 µM.

With `CN(C)c1ccnc(N2CCC(C(CC#N)n3cc(-c4ncnc5[nH]ccc45)cn3)C2)n1` (stereo not drawn) [Example 6, 3-{1-[4-(dimethylamino)pyrimidin-2-yl]pyrrolidin-3-yl}-3-[4-(7H-pyrrolo[2,3-d]pyrimidin-4-yl)-1H-pyrazol-1-yl]propanenitrile], the “JAK2/JAK1 IC50 ratio” value in test [1] (setting [3]) was over 5. Besides, the IC50 in test [2] (setting [4]) was under 0.05 µM.

For the molecule `CC(C)Nc1ccnc(N2CCC(C(CC#N)n3cc(-c4ncnc5[nH]ccc45)cn3)C2)n1` (stereo not drawn) [Example 7, 3-{1-[4-(isopropylamino)pyrimidin-2-yl]pyrrolidin-3-yl}-3-[4-(7H-pyrrolo[2,3-d]pyrimidin-4-yl)-1H-pyrazol-1-yl]propanenitrile], the “JAK2/JAK1 IC50 ratio” value in test [1] (setting [3]) is listed as 4.7. Moreover, in test [2] (setting [4]), the IC50 is under 0.05 µM.

`N#CCC(C1CCN(c2ccc3c(n2)[S+]([O-])CC3)C1)n1ccc(-c2ncnc3[nH]ccc23)c1` (stereo not drawn) [Example 35, 3-[1-(1-oxido-2,3-dihydrothieno[2,3-b]pyridin-6-yl)pyrrolidin-3-yl]-3-[3-(7H-pyrrolo[2,3-d]pyrimidin-4-yl)-1H-pyrrol-1-yl]propanenitrile]: the “JAK2/JAK1 IC50 ratio” value in test [1] (Assay Conditions 1 mM ATP) came to 4.2. In addition, the IC50 in test [2] (Assay Conditions 1 mM ATP) was under 0.05 µM.

For the molecule `N#CCC(C1CCN(c2nc3ccccc3nc2O)C1)n1cc(-c2ncnc3[nH]ccc23)cn1` (stereo not drawn) [Example 43, 3-[1-(3-hydroxyquinoxalin-2-yl)pyrrolidin-3-yl]-3-[4-(7H-pyrrolo[2,3-d]pyrimidin-4-yl)-1H-pyrazol-1-yl]propanenitrile trifluoroacetate salt], the “JAK2/JAK1 IC50 ratio” value in test [1] (setting [3]) came to 2.5. The molecule further showed an IC50 in test [2] (setting [4]) of under 0.05 µM.

As for `N#CCC(C1CCN(c2ncc3cccc(Cl)c3n2)C1)n1cc(-c2ncnc3[nH]ccc23)cn1` (stereo not drawn) [Example 44, 3-[1-(8-chloroquinazolin-2-yl)pyrrolidin-3-yl]-3-[4-(7H-pyrrolo[2,3-d]pyrimidin-4-yl)-1H-pyrazol-1-yl]propanenitrile trifluoroacetate salt], the “JAK2/JAK1 IC50 ratio” value in test [1] (setting [3]) stood at 3. The molecule also had an IC50 in test [2] (setting [4]) of under 0.05 µM.

`N#CCC(C1CCN(c2ncc3cccc(F)c3n2)C1)n1cc(-c2ncnc3[nH]ccc23)cn1` (stereo not drawn) [Example 46, 3-[1-(8-fluoroquinazolin-2-yl)pyrrolidin-3-yl]-3-[4-(7H-pyrrolo[2,3-d]pyrimidin-4-yl)-1H-pyrazol-1-yl]propanenitrile]: in test [1] (Assay Conditions 1 mM ATP), the “JAK2/JAK1 IC50 ratio” value is reported as 3.7. The molecule further came in with an IC50 in test [2] (Assay Conditions 1 mM ATP) of under 0.05 µM.

Turning to `N#CC[C@@H]([C@H]1CCN(c2ncc(Br)s2)C1)n1cc(-c2ncnc3[nH]ccc23)cn1` [Example 47, (3S)-3-[(3S)-1-(5-bromo-1,3-thiazol-2-yl)pyrrolidin-3-yl]-3-[4-(7H-pyrrolo[2,3-d]pyrimidin-4-yl)-1H-pyrazol-1-yl]propanenitrile trifluoroacetate], the “JAK2/JAK1 IC50 ratio” value in test [1] (Assay Conditions 1 mM ATP) was 6.9. The same molecule had a 50% inhibitory concentration (IC50) in test [2] (Assay Conditions 1 mM ATP) of under 0.05 µM.

Consider `N#CC[C@@H]([C@H]1CCN(c2cccc(Cl)c2C#N)C1)n1cc(-c2ncnc3[nH]ccc23)cn1` [Example 48, 2-chloro-6-((3S)-3-{(1S)-2-cyano-1-[4-(7H-pyrrolo[2,3-d]pyrimidin-4-yl)-1H-pyrazol-1-yl]ethyl}pyrrolidin-1-yl)benzonitrile trifluoroacetate], for which, in test [1] (Assay Conditions 1 mM ATP), the “JAK2/JAK1 IC50 ratio” value is given as over 30. In test [2] (Assay Conditions 1 mM ATP), this molecule showed an IC50 of under 0.05 µM.
